The target of assay [1] is T1, PD-1/PD-L1 complex (hPD-L1 and hPD-1) (Homo sapiens, UniProt Q9NZQ7).
T1 construct: purchased Cis-Bio
Nature of the assay: Homogeneous time-resolved fluorescence (HTRF) assay, Cis-Bio kit. It counts as binding. For orientation: TR-FRET usually uses a lanthanide donor and a delayed reading to cut background.

In a further assay the target is T2, murine PD-L1 (Mus musculus, UniProt Q9EP73).
T2 construct: mPD-L1 residues, 19–134; made in house; host or cells: Escherichia coli BL21 (DE3)
Nature of the assay: MicroScale Thermophoresis (MST) binding assay, murine PD-L1. The settings on record: mPD-L1. (In general: Microscale thermophoresis detects binding through changes in fluorescence in a small temperature gradient.)

A further assay deals with primary human T cells. Nature of the assay: Flow cytometry of activation markers on primary T cells (PBMCs on hPD-L1 aAPCs). It is filed as cell-based. The settings on record: 48 h. The protocol: The biological activity of the compound 2k was further verified on the primary T cells. For this, peripheral blood mononuclear cells (PBMCs) isolated from the blood of healthy donors were contacted with hPD-L1 aAPCs to provide TCR-mediated activation of T cells and the engagement of PD-1/PD-L1 immune checkpoint. The cells were then analyzed with flow cytometry following the gating for CD4^+ and CD8^+ T cells. The blockade of the PD-1/PD-L1 immune checkpoint was expected to increase the activation of T cells. In the experiment, atezolizumab and compound 2k were used. […] Because the prolonged activation of T cells leads to the increase of the expression of immune checkpoint molecules,[30] we have monitored the expression of PD-1 protein itself as an indicator of the late T cell activation and exhaustion. […] This confirms the bioactivity of the compound 2k in the context of primary T cells.
Blood samples from healthy donors were purchased from the Regional Center of Blood Donation and Blood Therapy in Krakow. PBMCs were isolated by a density gradient centrifugation using Pancoll human separating solutions (PAN-Biotech) and then resuspended in RPMI 1640 medium (Biowest) containing 10% FBS (Biowest).
PBMCs were added to the preseeded aAPCs at the density of 400 000 cells/well and incubated in the presence of compound 2k, DMSO, and with or without atezolizumab (5 μg/mL) as an anti-PD-L1 monoclonal antibody. After 48 h, cells were detached using TrypLe Select Enzyme (Thermo Fisher Scientific), collected into 5 mL round-bottom tubes, and washed with flow cytometry staining buffer (Thermo Fisher Scientific). For flow cytometry analysis, cells were stained using monoclonal antibodies: anti-CD69-APC, anti-CD4-FITC, anti-CD8-BV510, and anti-PD1-PECy7 (Becton Dickinson, BD). Following 20 min of incubation at room temperature, cells were washed, resuspended in PBS, and analyzed using a FACSCanto II flow cytometer (BD) and FACSDiva software (BD). The data analysis was carried out with FACSuite software (BD).

The target in assay [2] is T3, hPD-1/hPD-L1 immune checkpoint (hPD-L1 aAPCs and Jurkat hPD-1 effector cells) (Homo sapiens, UniProt Q9NZQ7).
T3 construct: host or cells: CHO K-1 (hPD-L1 aAPCs) and Jurkat T cells (hPD-1 effector cells)
In words: hPD-1/hPD-L1 immune checkpoint blockade cell-based assay (Promega Blockade Bioassay).

Data on ten compounds can be found in PMC7584369, “Di-bromo-Based Small-Molecule Inhibitors of the PD-1/PD-L1 Immune Checkpoint” (Journal of Medicinal Chemistry, 2020).

Where a name gives a salt, the structure may show the parent alone. A value given as a limit tells only on which side of the number the result lay.

T1 sequence (Q9NZQ7 19-238 limits assumed, one chain of several): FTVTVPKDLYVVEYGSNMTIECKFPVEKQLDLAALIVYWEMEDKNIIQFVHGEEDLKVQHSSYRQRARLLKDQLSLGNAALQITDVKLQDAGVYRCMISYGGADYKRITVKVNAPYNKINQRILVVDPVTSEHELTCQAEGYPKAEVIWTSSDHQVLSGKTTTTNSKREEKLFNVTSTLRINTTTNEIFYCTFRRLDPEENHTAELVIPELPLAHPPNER
T3 sequence (Q9NZQ7 19-290): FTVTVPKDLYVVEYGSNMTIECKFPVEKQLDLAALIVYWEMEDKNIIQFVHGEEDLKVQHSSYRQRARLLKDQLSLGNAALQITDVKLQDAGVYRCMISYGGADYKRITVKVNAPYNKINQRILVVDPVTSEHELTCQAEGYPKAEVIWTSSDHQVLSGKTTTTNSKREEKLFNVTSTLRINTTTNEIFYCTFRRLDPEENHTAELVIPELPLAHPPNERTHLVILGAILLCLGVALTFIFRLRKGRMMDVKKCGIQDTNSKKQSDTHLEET
T2 sequence (Q9EP73 19-134): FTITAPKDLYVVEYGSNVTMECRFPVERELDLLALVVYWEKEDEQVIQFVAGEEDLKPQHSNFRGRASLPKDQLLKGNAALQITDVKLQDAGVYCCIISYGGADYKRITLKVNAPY

Take `O=C(O)[C@@H]1CCCCN1Cc1ccc(OCc2cccc(-c3ccccc3)c2Br)cc1` [2h, (S)-1-(4-((2-Bromo-[1,1′-biphenyl]-3-yl)methoxy)benzyl)piperidine-2-carboxylic Acid]: the IC50 in assay [1] came to 0.522 ± 0.0005 µM.

Consider `O=C(O)[C@@H]1C[C@H](O)CN1Cc1ccc(OCc2cccc(-c3ccccc3)c2-c2ccccc2)c(Br)c1` [4f, (2S,4S)-1-(4-([1,1′:2′,1″-Terphenyl]-3′-ylmethoxy)-3-bromobenzyl)-4-hydroxypyrrolidine-2-carboxylic Acid], for which the midpoint of inhibition in assay [1], the IC50, lay at 49.1 ± 0.15 µM.

With `OCc1cccc(-c2ccccc2)c1-c1ccccc1` [1b, [1,1′:2′,1″-terphenyl]-3′-ylmethanol], the IC50 in assay [1] was > 100 µM.

In assay [1], `O=C(NCCCN1CCOCC1)c1ccc(OCc2cccc(-c3ccccc3)c2Br)c(Br)c1` [2f, 4-(3-(3-Bromo-4-((2-bromo-[1,1′-biphenyl]-3-yl)methoxy)benzamido)propyl)morpholin-4-ium Hydrochloride] registered an IC50 of 13.2 ± 0.15 µM.

With `Cc1c(COc2cc(OCc3cccc(C#N)c3)c(CN3C[C@H](O)C[C@@H]3C(=O)O)cc2Cl)cccc1-c1ccc2c(c1)OCCO2` [BMS-1166, reference compound], the “MST KD” value on murine PD-L1 is “no activity”.

Regarding `N#Cc1ccc(-c2cccc(COc3ccc(C=O)cc3Br)c2Br)cc1` [4g, 2′-Bromo-3′-((2-bromo-4-formylphenoxy)methyl)-[1,1′-biphenyl]-4-carbonitrile], half-maximal inhibition in assay [1] (IC50) required 29.4 ± 0.45 µM.

For the compound “atezolizumab: an anti-PD-L1 therapeutic antibody [reference compound]”, in the assay on primary human T cells, the “expression of PD-1 receptor on the surface of CD4+ and CD8+ T cells” value is listed as “significant increase”; the “expression of early T-cell activation marker CD69” value is “Neither of the two molecules was able to increase”.

`COc1cc(CN2CCCC[C@H]2C(=O)O)ccc1OCc1cccc(-c2ccccc2)c1Br` [2j, (S)-1-(4-((2-Bromo-[1,1′-biphenyl]-3-yl)methoxy)-3-methoxybenzyl)piperidine-2-carboxylic Acid] registered an IC50 in assay [1] of 0.204 ± 0.0064 µM. The EC50 in assay [2] (cell based assay, Table S1) is > 500 µM.

In assay [2] (reference antibody, Hill fit), “Durvalumab: a clinically relevant PD-L1-blocking antibody; positive control anti-hPD-L1 monoclonal antibody [reference compound]” gave an EC50 of 0.0002 ± 6e-05 µM.

For `Cc1cc(CN2CCCC[C@H]2C(=O)O)ccc1OCc1cccc(-c2ccccc2)c1Br` [2i, (S)-1-(4-((2-Bromo-[1,1′-biphenyl]-3-yl)methoxy)-3-methylbenzyl)piperidine-2-carboxylic Acid], the “MST KD” value at murine PD-L1 is reported as “no activity”.

The IC50 is the concentration that gives 50% inhibition. As a reminder, the EC50 is the concentration needed to bring the measured effect to its halfway point. High values mean weaker potency, low ones greater potency.
